14 molecules from ChEMBL document CHEMBL4725324, “In vitro and in vivo evaluation of the antimalarial MMV665831 and structural analogs” (Bioorg Med Chem Lett, 2020) can be followed below.

A word on the EC50: it is the midpoint of the concentration-response curve.

The structures appear in SMILES notation. Active and inactive are the calls of the source. No cut-off for these calls is given here. Bounds are passed on as bounds.

The test system of one data set is Plasmodium falciparum. Briefly: Antimalarial activity against Plasmodium falciparum 3D7 assessed as reduction in parasite growth incubated for 48 hrs. It is filed as functional, organism-based. The note with it: 3D7, 48 h.
The nature of data set [1]: Stability in methanolic diethylamine at 40 degC measured after 2 days 1H-NMR analysis. In kind it is physicochemical. The note with it: 48 h; time 2 day.
Data set [2] can be described thus: Stability in D2O at 90 degC measured after 1 day HRMS analysis. As to conditions: 24 h. It is filed as physicochemical.
A short description of data set [3]: Solubility of compound in CDCl3. In kind it is physicochemical.
Data set [4] is described as follows: Stability in methanolic diethylamine at 40 degC measured after 2 days HRMS analysis. It is filed as physicochemical. As to conditions: 48 h; time 2 day.
Data set [5] in a line: Drug metabolism in 0.1 M DCl in D20 assessed as ethyl 2-benzamido-4-deuterio-6-(dimethylaminomethyl)-7-hydroxy-benzothiophene-3-carboxylate formation at 90 degC after 24 hrs.
Data set [6] is described as follows: Stability in D2O at 50 degC measured after 7 days HRMS analysis. It is filed as physicochemical. The note with it: 168 h; time 7 day.
Data set [7] can be described thus: Solubility of compound in D2O. In kind it is physicochemical.
Data set [8] can be described thus: Stability in mouse plasma assessed as carboxylesterase-mediated reduction in parent compound incubated for over 120 mins. It is filed as ADME, cell-free. The note with it: 2 h.
Data set [9] in a line: Stability in mouse hepatocytes assessed as half life. In kind it is ADME, cell-based, Hepatocyte.
Another data set relates to Plasmodium berghei. Kind of data set: Antimalarial activity against blood-stage Plasmodium berghei infected in mouse assessed as reduction in parasite growth at 40 mg/kg, po. It is filed as functional, organism-based.

On to `CCCN(CCC)Cc1ccc2c(C(=O)OCC)c(NC(=O)c3ccccc3)sc2c1O`, for which, in the data set on Plasmodium falciparum, the EC50 stood at 16 nM.

On to `CCOC(=O)c1c(NC(=O)c2ccccc2)sc2c(O)c(CN3CCOCC3)ccc12`, for which, in the data set on Plasmodium falciparum, the EC50 is 100 nM.

Regarding `CCOC(=O)c1c(NC(=O)c2ccc(Cl)cc2)sc2c(O)c(CN(CC)CC)ccc12`, the EC50 in the data set on Plasmodium falciparum is 70 nM.

As to `CCOC(=O)c1c(NC(=O)c2ccccc2)sc2c(O)c(CCN(C)C)ccc12`, the EC50 in the data set with Plasmodium falciparum is 182 nM.

Consider `CCN(CC)Cc1ccc2c(C(=O)NC)c(NC(=O)c3ccccc3)sc2c1O`, for which, in the data set on Plasmodium falciparum, the EC50 was > 1000 nM.

With `CCOC(=O)c1c(NC(=O)c2ccccc2)sc2c(O)c(CN(C)C)ccc12.Cl`, the EC50 with Plasmodium falciparum was 24 nM. Further, the Stabilty result in [1] is “Stable”; in [2] it was “Unstable”; in data set [4] it was “Stable”; in data set [6], “Stable”. Moreover, the solubility result in data set [3] and in data set [7] was “Insoluble” each time. Also, the Drug metabolism result in data set [5] is “Metabolite detected”.

Regarding `CCOC(=O)c1c(NC(=O)c2ccccc2)sc2c(OC)c(CN(CC)CC)ccc12`, the EC50 in the data set with Plasmodium falciparum is > 1000 nM.

On to `CCOC(=O)c1c(NC(=O)c2ccc(OC)cc2)sc2c(O)c(CN(CC)CC)ccc12`, for which the EC50 in the data set on Plasmodium falciparum turned out to be 66 nM.

Consider `CCOC(=O)c1c(NC(=O)c2ccccc2)sc2c(O)c(CN(CC)CC)ccc12`, for which the EC50 in the data set with Plasmodium falciparum turned out to be 27 nM. Moreover, the Stabilty entry in data set [8] was “Stable”. The t1/2 in data set [9] turned out to be 11 min. In the data set with Plasmodium berghei, the result was inactive.

Consider `CCOC(=O)c1c(NC(=O)c2ccccc2)sc2c(O)c(CN3CCCC3)ccc12`, for which, in the data set on Plasmodium falciparum, the EC50 turned out to be 16 nM.

Consider `CCOC(=O)c1c(NC(=O)c2ccccc2)sc2c(O)c(CNC34CC5CC(CC(C5)C3)C4)ccc12`, for which, in the data set with Plasmodium falciparum, the EC50 is 388 nM.

As to `CCN(CC)Cc1ccc2c(C(=O)OC)c(NC(=O)c3ccccc3)sc2c1O`, in the data set with Plasmodium falciparum, the EC50 was determined as 53 nM.

As for `O[C@@H](c1cc(C(F)(F)F)nc2c(C(F)(F)F)cccc12)[C@H]1CCCCN1` [(S,R)-MEFLOQUINE], the EC50 in the data set with Plasmodium falciparum was 16 nM.

`CCOC(=O)c1c(NC(=O)c2ccccc2)sc2c(O)c(CN3CCCCC3)ccc12`: the EC50 in the data set with Plasmodium falciparum came to 13 nM.
